Assay results published in ChEMBL document CHEMBL1156392, “New sesquiterpene derivatives from the red alga Laurencia scoparia. Isolation, structure determination, and anthelmintic activity” (J Nat Prod, 2001).

These compounds were tested on Nippostrongylus brasiliensis (assay: Anthelmintic activity against Nippostrongylus brasiliensis). Settings: not given.
Type: functional, organism-based
`C=C1C[C@@H](O)[C@@H](Br)C(C)(C)[C@@]12C=C/C(=C/Br)CC2` gave an Activity of under 100 µM. For `C=C1C[C@@H](O)[C@@H](Br)C(C)(C)[C@@]12C=CC(=O)CC2`, the Activity was under 100 µM. `C=C1C[C@@H](O)[C@@H](Br)C(C)(C)[C@@]12C=C/C(=C\Br)CC2` was tested, and the Activity was under 100 µM. `CCCCCCCCCCCCCC/C=C(/C=O)CCCCCCCCCCCCC` gave an Activity of under 100 µM. `C=C1C[C@@H](O)[C@H](Br)C(C)(C)[C@]12CC=C(C)CC2` showed an Activity of under 100 µM. Compound `CC1=CC(=O)CC(C)(C)[C@@]12C=CC(=O)CC2` has an Activity of under 100 µM. Compound `C=C1CC[C@@H](Br)C(C)(C)[C@]12CC[C@](C)(Br)[C@@H](Cl)C2` has an Activity of under 100 µM. For `C=C1C[C@H](O)[C@@H](Br)C(C)(C)[C@@]12C=C[C@](C)(O)CC2` [ISORIGIDOL], the Activity was under 100 µM.

Same assay, conditions: Nippostrongylus brasiliensis
Work on `CCCSc1ccc2[nH]c(NC(=O)OC)nc2c1` [ALBENDAZOLE] yielded an EC50 of 340 nM. With `COC(=O)Nc1nc2cc(Sc3ccccc3)ccc2[nH]1` [FENBENDAZOLE] the EC50 was 120 nM. For `c1ccc([C@H]2CN3CCSC3=N2)cc1` [LEVAMISOLE], the EC50 was 210 nM.
